Results published in article PMC5424463, “A strategy based on nucleotide specificity leads to a subfamily-selective and cell-active inhibitor of N ^6-methyladenosine demethylase FTO” (Chemical Science, 2014).

Key:
FTO = target: T1, FTO (Homo sapiens, UniProt Q9C0B1); assay: HPLC-based inhibition assay for FTO, m3T substrate; assay type: biochemical; settings: HPLC-based demethylase assay, m3T substrate; read-out: IC50 (FTO)
T1 construct: The human full length FTO construct used in this study; made in house; host or cells: E. coli BL21 (DE3) Rosetta T1R
Protocol: HPLC-based inhibition assays for FTO
The assay was modified from previously reported method.[17] It is performed in triplicate for each inhibitor, in a final reaction volume of 25 µL. Reaction consisted of FTO (1 µM), 2OG (50 µM), (NH4)2Fe(SO4)2·6H2O (50 µM), L-ascorbate (2 mM), 3-methylthymidine (m3T substrate, 10 µM) in 50 mM HEPES buffer, pH 7.5, and inhibitor at various concentrations (final DMSO concentration not more than 1% v/v of assay mix). The reaction was incubated at 4°C for 1 h, before analysis on a HPLC system. The substrate (m3T) and the demethylated product (thymidine) were separated using a Zorbax C18 column (4.6 mm x 250 mm) with a […]
flow rate of 1 mL/min at room temperature.
The percentage inhibition was estimated based on the peak areas of the 3-methylthymidine substrate and the thymidine product. For IC50 determination, eight different concentrations of […]
the variation in percentage demethylation at different inhibitor concentrations, using nonlinear regression, with normalized dose-response fit on GraphPad Prism 6.0™.
HPLC-based assay for FTO was also performed using an m6A-ssRNA as substrate. The assay was modified from previously reported method.[21] All reaction conditions are as described for the inhibition of m3T demethylation above, except that a 15-mer ssRNA with the sequence 5’-CUUGUCA(m6A)CAGCAGA-3’ (Yale University, W.M. Keck Foundation Biotechnology Resource Laboratory) was used as substrate (10 µM). The reaction was analysed on a bio-inert HPLC system. The m6A-ssRNA substrate and the corresponding demethylated product were separated using a Dionex DNAPac PA200 anion-exchange

ALKBH5 = target: T2, ALKBH5 (Homo sapiens, UniProt Q6P6C2); assay: HPLC-based inhibition assay for ALKBH5, m6A-ssRNA substrate; assay type: biochemical; settings: 5-mer m6A-ssRNA substrate
T2 construct: pNIC28-Bsa4 ALKBH5 (encompassing residues 66-292); made in house; host or cells: E. coli BL21 (DE3) Rosetta T1R
Protocol: Figure S4. Enzyme inhibition curves of 12 against FTO and ALKBH5, as determined by a HPLC-based assay using m6A-containing ssRNA substrates. The substrate sequences for the FTO and ALKBH5 assays are 5’-CUUGUCA(m6A)CAGCAGA-3’ and 5’-GG(m6A)CU-3’, […]
respectively, which represents >100-fold selectivity for FTO over ALKBH5.
(1 picture or pasted object on this page, not shown here) […]
chloride) over 18 min, at a flow rate of 1 mL/min at 40°C. The UV detection wavelength was set at 266 nm. The percentage inhibition was estimated based on the peak areas of the m6A-ssRNA substrate and the corresponding demethylated product. For IC50 determination, eight […]
were then calculated from the variation in percentage demethylation at different inhibitor concentrations, using nonlinear regression, with normalized dose-response fit on GraphPad […]
HPLC-based inhibition assays for AlkB and ALKBH2
The assay was modified from previously reported method.[18] A 15-mer m1A-ssDNA substrate with the sequence 5’-AAAGCAG(m1A)ATTCGAA-3 ’ (Yale University, W.M.
Keck Foundation Biotechnology Resource Laboratory) was used in this inhibition assay. The assay was performed in triplicate for each inhibitor, in a final reaction volume of 25 µL. […]

PHD2 = system: PHD2; parameters: method as in PMID 16858410; settings: known inhibitor; cited from earlier work

T1 sequence (Q9C0B1 whole entry): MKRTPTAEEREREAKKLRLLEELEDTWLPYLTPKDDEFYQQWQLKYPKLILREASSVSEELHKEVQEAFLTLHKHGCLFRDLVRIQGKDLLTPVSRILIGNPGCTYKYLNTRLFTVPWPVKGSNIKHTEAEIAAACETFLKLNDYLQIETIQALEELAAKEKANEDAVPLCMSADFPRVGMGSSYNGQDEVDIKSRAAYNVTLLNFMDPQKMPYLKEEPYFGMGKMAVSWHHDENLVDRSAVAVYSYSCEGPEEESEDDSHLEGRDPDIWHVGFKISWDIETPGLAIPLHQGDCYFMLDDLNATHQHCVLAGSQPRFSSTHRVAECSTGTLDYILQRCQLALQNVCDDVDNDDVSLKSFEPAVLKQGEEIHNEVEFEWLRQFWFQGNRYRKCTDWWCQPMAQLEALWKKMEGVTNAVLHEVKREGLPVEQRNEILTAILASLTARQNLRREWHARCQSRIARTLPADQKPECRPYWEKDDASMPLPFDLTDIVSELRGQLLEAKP
T2 sequence (Q6P6C2 66-292): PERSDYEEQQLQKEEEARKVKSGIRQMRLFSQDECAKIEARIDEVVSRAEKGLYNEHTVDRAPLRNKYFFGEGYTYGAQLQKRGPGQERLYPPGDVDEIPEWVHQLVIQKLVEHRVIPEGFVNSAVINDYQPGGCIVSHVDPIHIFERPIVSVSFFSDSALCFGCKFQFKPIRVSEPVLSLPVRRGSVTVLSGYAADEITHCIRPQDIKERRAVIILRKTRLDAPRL

Row | SMILES | IC50 (FTO) [µM] | also measured
1 | O=C(O)C=CC(=O)NNC(=O)c1cc(Cc2ccccc2)ccn1 [Compound 22] | 86.8 | 
2 | O=C(O)/C=C/C(=O)NNC(=O)c1ccccn1 [Compound 23] | 109 | 
3 | O=C(O)/C=C/C(=O)NNC(=O)c1cnccc1Cc1ccccc1 [Compound 12] |  | IC50 (ALKBH5): 96.5 µM
4 | O=C(O)/C=C/C(=O)NNC(=O)c1cccnc1 [Compound 21] |  | IC50 (PHD2): 0.082 µM
